Source: patent publication US20090170897A1, “Method of Treating Neuropathic Pain” (Pfizer, Inc., priority 2004, published 2009)

How the values were obtained:
[1] = test system: Chronic Constriction Injury (CCI) rat model of neuropathic pain; assay: CCI-induced dynamic allodynia (cotton bud, PWL); assay type: in vivo
Method: (§1) Male Sprague Dawley rats weighing 150-400 g obtained from Charles River (Manston, Kent, UK.) were housed in groups of 3. All animals were kept under a 12 h light/dark cycle (lights on at 07 h 00 min) with food and water ad libitum. All experiments were carried out by an observer blind to the treatments and in accordance with the Home Office Animals (Scientific Procedures) Act 1986.
The CCI of sciatic nerve was performed as previously described by Bennett and Xie (Bennett G J, Xie Y K. A peripheral mononeuropathy in rat that produces disorders of pain sensation like those seen in man. Pain:33:87-107, 1988). Animals were anaesthetised with a 2% isofluorane/O2 mixture. The right hind thigh was shaved and swabbed with 1% iodine. Animals were then transferred to a homeothermic blanket for the duration of the procedure and anaesthesia maintained during surgery via a nose cone. The skin was cut along the line of the thighbone. The common sciatic nerve was exposed at the middle of the thigh by blunt dissection through biceps femoris. About 7 mm of nerve was freed proximal to the sciatic trifurcation, by inserting forceps under the nerve and the nerve gently lifted out of the thigh. Suture was pulled under the nerve using forceps and tied in a simple knot until slight resistance was felt and then double knotted. The procedure was repeated until 4 ligatures (4-0 silk) were tied loosely around the nerve with approx 1 mm spacing. The incision was closed in layers.
Dynamic allodynia was assessed by lightly stroking the plantar surface of the hind paw with a cotton bud. To avoid recording general motor activity, care was taken to perform this procedure in fully habituated rats that were not active. At least two measurements were taken at each time point, the mean of which represented the paw withdrawal latency (PWL). […] A pain withdrawal response was often accompanied with repeated flinching or licking of the paw. Dynamic allodynia was considered to be present if animals responded to the cotton stimulus within 8 sec of commencing stroking (Field et al, 1999).
(§2) All the experiments were conducted blind. Static allodynia was expressed as median [LQ; UQ] and analysed by Mann Whitney U test. Dynamic allodynia and thermal hyperalgesia were expressed as arithmetic mean±SEM and analysed by ANOVA.

[2] = test system: Carrageenan-induced thermal hyperalgesia (CITH) in the rat; assay: Carrageenan-induced thermal hyperalgesia (CITH), rat plantar test; assay type: in vivo; details: 25 mg/kg PO
Method: as §1
Thermal hyperalgesia was assessed using the rat plantar test (Ugo Basile, Comerio, Italy), according to a method modified by Hargreaves et al. (1988). Briefly, rats were habituated to the apparatus that consisted of three individual Perspex boxes on a glass table. A mobile radiant heat source was located under the table and focused onto the desired paw. Paw withdrawal latencies (PWLs) were recorded three times for both hind paws of each animal, the mean of which represented baseline for left and right hind paws. The apparatus was calibrated to give a PWL of approximately 10 s in naïve rats. To prevent tissue damage of the plantar zone, a 22.5 sec cut-off was observed. Lambda carrageenan was injected intraplantarly (100 μl, 20 mg/ml) the right hind paw and baseline recordings of PWT were taken 2 hr post administration.
as §2

CRTH2 receptor = molecular target: T1, CRTH2 receptor (Rattus norvegicus, UniProt Q6XKD3); assay: IC50 at rat CRTH2 receptor (rIC50)
T1 sequence (Q6XKD3 1-403): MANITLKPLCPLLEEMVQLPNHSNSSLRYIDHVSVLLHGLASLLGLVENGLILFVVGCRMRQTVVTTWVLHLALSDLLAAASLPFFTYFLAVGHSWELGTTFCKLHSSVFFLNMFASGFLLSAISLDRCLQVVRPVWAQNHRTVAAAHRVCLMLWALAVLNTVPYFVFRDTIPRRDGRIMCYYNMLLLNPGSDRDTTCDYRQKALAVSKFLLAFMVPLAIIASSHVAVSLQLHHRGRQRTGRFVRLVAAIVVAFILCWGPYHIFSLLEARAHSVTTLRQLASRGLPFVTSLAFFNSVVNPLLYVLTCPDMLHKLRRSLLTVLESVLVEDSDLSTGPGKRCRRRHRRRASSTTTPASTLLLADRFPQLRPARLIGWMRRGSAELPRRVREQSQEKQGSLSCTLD

- IC50 (CRTH2 receptor): 45 nM
SMILES: CC(=O)N(C1CC1)C1CC(C)N(C(=O)c2cccnc2)c2ccccc21 (stereo not drawn) [N-cyclopropyl-N-[2-methyl-1-(pyridine-3-carbonyl)-1,2,3,4-tetrahydro-quinolin-4-yl]-acetamide]
- time of peak effect, dynamic allodynia ([1]; 25 mg/kg PO (MED), post administration): 1 h
- effect on maintenance of CCI-induced dynamic allodynia ([1]; 12.5, 25 and 50 mg/kg PO, from 14 days post surgery): reversed the maintenance of CCI-induced static and dynamic allodynia in a dose dependent manner
- MED, dynamic allodynia ([1]; PO): 25 mg/kg
- dynamic allodynia effect relative to gabapentin ([1]; highest dose (50 mg/kg PO) vs gabapentin 100 mg/kg PO): less potent but significantly different from vehicle treated CCI rats
- dynamic allodynia paw withdrawal latency (mean±SEM) ([1]; highest dose (50 mg/kg PO), 2 hrs post administration, vehicle 3.5±0.7): 11.8±1.0
- onset of anti-allodynic effect, dynamic allodynia ([1]; highest dose (50 mg/kg PO), post dose, p<0.01 vs vehicle): 30 min
- effect in the contralateral paw [2]: no effect
- effect on maintenance of thermal hyperalgesia (ipsilateral paw) [2]: completely reversed
- paw withdrawal latency at peak effect (mean±SEM) ([2]; 2 h post administration, ipsilateral paw, vehicle 3.9±0.2): 10.1±0.6
- time of peak effect, thermal hyperalgesia ([2]; post administration): 2 h
- duration of anti-hyperalgesic effect ([2]; post compound administration): 5 h
